Patent US8080569B2, “Imidazo[2,1-b]thiazoles and their use as pharmaceuticals” (Sanofi-Aventis, priority 2006, dated 2011)

system: eNOS promoter; assay: Activation of eNOS transcription (eNOS promoter-luciferase reporter in human endothelial cell line); format: cell-based; conditions: human endothelial cell line stably transfected with eNOS promoter-luciferase construct, 18 h incubation, EC50 determined graphically; read-out: EC50 values of transcription induction ratios (TIR)
Experimental: A) Activation of eNOS Transcription
Activation of eNOS transcription was measured as described in detail by Li et al., “Activation of protein kinase C alpha and/or epsilon enhances transcription of the human endothelial nitric oxide synthase gene”, Mol. Pharmacol. 53 (1998), 630-637. Briefly, a 3.5 kB long fragment 5′ of the starting codon of the eNOS gene was cloned, sequenced and cloned in firefly luciferase expression plasmids to monitor activation of the eNOS promoter by reporter gene activity. A human endothelial cell line stable transfected and expressing this promoter-reporter construct was used for compound testing. Cells were incubated for 18 h with the compounds.
All compounds were dissolved in sterile dimethyl sulfoxide (DMSO). A final concentration of 0.5% DMSO in complete medium was allowed. Induction of reporter gene expression in these cells was measured using a standard luciferase assay system (Promega, Cat. No. E150) according to the manufacturer's instructions. Luciferase induction in cells incubated with compounds were compared to those incubated with solvent alone. The ratio of both activities (transcription induction ratio, TIR) was plotted as a function of compound concentration. Typically, TIR values started at low concentrations at a ratio of 1, indicating no compound effect, and extended up to a maximum TIR value TIR(max) which indicates the increase of the eNOS transcription. EC50 values of transcription induction ratios as a function of compound concentration were determined graphically.

Row | SMILES | EC50 [nM]
1 | Cc1c(C(=O)NC(C)(C)C)sc2nc(-c3ccc(F)cc3)cn12 [Example 10, 6-(4-Fluoro-phenyl)-3-methyl-imidazo[2,1-b]thiazole-2-carboxylic acid tert-butylamide] | < 500
2 | CCOC(=O)c1sc2nc(-c3cccc(Cl)c3)cn2c1C [Example 2, 6-(3-Chloro-phenyl)-3-methyl-imidazo[2,1-b]thiazole-2-carboxylic acid ethyl ester] | < 500
3 | CCOC(=O)c1sc2nc(-c3ccc(C)cc3)cn2c1C [Example 3, 3-Methyl-6-p-tolyl-imidazo[2,1-b]thiazole-2-carboxylic acid ethyl ester] | < 500
4 | CCOC(=O)c1sc2nc(-c3ccc(F)cc3)cn2c1C [Example 1, 6-(4-Fluoro-phenyl)-3-methyl-imidazo[2,1-b]thiazole-2-carboxylic acid ethyl ester] | < 500
5 | Fc1ccc(-c2cn3cc(Br)sc3n2)cc1 [Example 22, 2-Bromo-6-(4-fluoro-phenyl)-imidazo[2,1-b]thiazole] | < 500
